Test results reported in patent US20050089571A1, “Pharmaceutical formulation for the active ingredient budesonide” (ROEHM GMBH & CO.KG, priority 2002, published 2005).

Experiment: Release test for budesonide, USP XXIII <711> Dissolution, apparatus 2 (paddle), 100 revolutions/min
Type: physicochemical
Method: The release test for budesonide is carried out in accordance with USP XXIII monograph <711> “Dissolution” with apparatus 2 (paddle) with 100 revolutions/min in phosphate buffer of pH 7.5 according to the monograph “Intestinal Fluid, Simulated, TS” without addition of pepsin or in purified water with the paddle at 100 revolutions/min with 500 ml of dissolving medium. 400 mg of sample were weighed for each determination. Detection took place by means of HPLC with a PP 18 column, 10 cm (Phenomenex) and UV detection at 246 nm. Equipment: pump L 7000 100 (from Merck-Hitachi, Darmstadt, Germany), autosampler L 7000 200 (from Merck-Hitachi, Darmstadt, Germany) UV/VIS detector L 4250 (from Merck-Hitachi, Darmstadt, Germany). The volume injected was 100 μl, and the flow rate was 1 ml/min. The retention times averaged 2.5 min. At the end of the test, the pellets were homogenized with an Ultra Turrax for 10 min. The content was used as 100% value in the calculation. 3 to 6 tests were carried out for each medium.
The pellets release the active ingredient under the indicated conditions in vitro as described below. At the end of the test, the pellets were homogenized using an Ultra Turrax for 10 min, and the budesonide concentration in the solution was again determined. The latter measurement was used as 100% value (theoretically possible budesonide content in the solution) in the calculation.

CCCC1O[C@@H]2C[C@H]3[C@@H]4CCC5=CC(=O)C=C[C@]5(C)[C@H]4[C@@H](O)C[C@]3(C)[C@]2(C(=O)CO)O1 (stereo partly shown) [Example 1, budesonide]
Release in purified water and phosphate buffer of pH 7.5, Mean (time 0 min): 0.0 % of theory
Release in purified water and phosphate buffer of pH 7.5, Mean (time 60 min): ca. 3.7 % of theory
Release in purified water and phosphate buffer of pH 7.5, Mean (time 120 min): ca. 5.4 % of theory
Release in purified water and phosphate buffer of pH 7.5, Mean (time 180 min): ca. 7.1 % of theory
